According to patent publication US20080279957A1, “Immunomodulating compositions from bile” (Lorus Therapeutics Inc., priority 2000, published 2008):
“And” between values parts separate entries of the source, which are not always exact repeats. Equal entries are not always repeated.

Test system: human PBMN
Experiment: TNF release by PBMN with LPS plus composition in the presence of Polymyxin
Assay type: cell-based
Procedure: In the studies of TNF, whole blood was drawn from 5 healthy subjects into heparinized Vacutainer tubes. Peripheral blood mononuclear cells (PBMNs) were isolated by gradient centrifugation on Ficoll-Hypaque (Pharmacia). The PBMN were washed twice with phosphate buffered saline (PBS), counted and resuspended in RPMI 1640 culture medium (Gibco Labs) at a concentration of 10^6 cells/0.5 ml. These cells were cultured in 24 well, flat-bottomed tissue culture plates (Falcon, Becton, Dickinson). […] The total volume was then made up to 1 ml/well with RPMI. As control, PBS was used instead of composition. The cells were cultured for 2, 6, 24, 48 and 72 hours at 37° C. in a humidified 5% CO2 incubator. At the end of each incubation period, the cells were harvested and cell free culture fluids were obtained by centrifugation at 9000 rpm for 10 minutes. The samples were then stored at −70° C. until ELISA for cytokines was carried out (within 2 weeks).
Polymyxin inhibits the action of endotoxin on leukocytes. […] In the absence of polymyxin, LPS induces 517 pg/ml of TNF-α, whereas in the presence of Polymyxin 11 pg/ml of TNF-α is released.
Initially, the effect of different fractions were examined in the presence of Polymyxin. […] Batch BO213 was 369 and high. […] Therefore, whether the hyperosmolarity of the samples was inhibiting or enhancing TNF-α release was investigated as set out below.

## Lipopolysaccharide [LPS]
Polymyxin 50.000 units/ml, composition and fractions 200 μl, LPS 50 ng/10 μl, 2 patients (Table 21)
  TNF Released Total: 31 ± 31 pg/mL
Polymyxin 50,000 units/ml, LPS 50 ng/10 μl, composition 200 μl (Table 19)
  TNF Released −LPS: 0 pg/mL
Polymyxin 50,000 units/ml, LPS 50 ng/10 μl, composition 200 μl, 8 patients (Table 19)
  TNF Released Total: 11 pg/mL and 11 ± 7 pg/mL
Polymyxin 50,000 units/ml, composition and fractions 200 μl, LPS 50 ng/10 μl, 5 patients (Table 20)
  TNF Released Total: 40 ± 25 pg/mL
Polymyxin, 200 μl, 2 patients (Table 21)
  TNF Released −LPS: 0 pg/mL
Polymyxin, 200 μl, 5 patients (Table 20)
  TNF Released −LPS: 0 pg/mL
